Test results from US9284288B2, “1-(p-tolyl) cyclopropyl substituted bridged spiro[2.4]heptane derivatives as ALX receptor agonists” (Actelion Pharmaceuticals Ltd., priority 2012, dated 2016).

Biological target: T1, recombinant human ALX receptor (Homo sapiens, UniProt P25090)
T1 construct: expressed in transfected cells; host or cells: HEK293
T1 sequence (P25090 1-351): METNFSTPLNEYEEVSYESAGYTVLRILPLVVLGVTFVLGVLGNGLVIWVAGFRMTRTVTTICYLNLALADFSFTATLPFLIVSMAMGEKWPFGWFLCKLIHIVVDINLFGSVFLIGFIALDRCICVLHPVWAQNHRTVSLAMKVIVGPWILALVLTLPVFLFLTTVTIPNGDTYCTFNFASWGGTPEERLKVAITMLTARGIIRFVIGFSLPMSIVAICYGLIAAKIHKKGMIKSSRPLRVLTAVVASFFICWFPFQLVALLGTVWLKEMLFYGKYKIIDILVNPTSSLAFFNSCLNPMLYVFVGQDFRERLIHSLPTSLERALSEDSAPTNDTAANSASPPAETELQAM
Assay: Intracellular calcium measurements (FLIPR), ALX receptor agonistic activity
Format: cell-based
Conditions: HEK293-hALXR-Gα16 cells; normalized to WKYMVm 10 nM; read-out: EC50 (agonistic activity with respect to the ALX receptor)
Experimental: The ALX receptor agonistic activity of the compounds of formula (I) is determined in accordance with the following experimental method.
Cells expressing recombinant human ALX receptor and the G-protein Gα16 (HEK293-hALXR-Gα16) were grown to 80% confluency in Growing Medium (GM). Cells were detached from culture dishes with a cell dissociation buffer (Invitrogen, 13151-014), and collected by centrifugation at 1′000 rpm at rt for 5 min in Assay Buffer (AB) (equal parts of Hank's BSS (Gibco, 14065-049) and DMEM without Phenol Red (Gibco, 11880-028)). After 60 min incubation at 37° C. under 5% CO2 in AB supplemented with 1 μM Fluo-4 (AM) (Invitrogen, F14202) and 20 mM HEPES (Gibco, 15630-056), the cells were washed and resuspended in AB. They were then seeded onto 384-well FLIPR assay plates (Greiner, 781091) at 50,000 cells in 70 μl per well and sedimented by centrifugation at 1,000 rpm for 1 min. Stock solutions of test compounds were made up at a concentration of 10 mM in DMSO, and serially diluted in AB to concentrations required for activation dose response curves. WKYMVm (Phoenix Peptides) was used as a reference agonist. […] Changes in fluorescence were monitored before and after the addition of test compounds at lex=488 nm and lem=540 nm. […]

## Cc1ccc(C2(NC(=O)C3C(C(=O)NCCCCN4CCCC4)C4CCC3C43CC3)CC2)cc1 [Example 1, (5R)-N^5-(1-(p-tolyl)cyclopropyl)-(6R)-N^6-(4-(pyrrolidino)butyl)-(4S,7R)-[4,7-ethylene-spiro[2.4]heptane]-5,6-dicarboxamide]
  EC50: 4 nM
